From patent US9676715B2, “Bis-indolic derivatives, a process for preparing the same and their uses as a drug” (UNIVERSITE JOSEPH FOURIER, priority 2011, dated 2017)
In brackets after ≈: the same amount, converted by molar mass.

Legend:
[1] = system: S. aureus ATCC 25923; experiment: Time-kill curves; assay type: cell-based, Staphylococcus aureus
Description: FIG. 2 presents the time-kill curve of compound 3f (tested at MIC×4, 8 or 16) obtained with S. aureus ATCC 25923.
The method described by Motyl et al. [M. Motyl, K. Dorso, J. Barrett, R. Giacobbe, Basic Microbiological Techniques Used in Antibacterial Drug Discovery. Current Protocols in Pharmacology. UNIT 13A.3. January, 2006] was used.
Killing curves corresponded to the measure of the kinetic of bactericidal activity of indolic compounds over time (time-kill curves) or after 18 h incubation of cultures according to different drug concentrations (concentration-killing curves). Sterile tubes were inoculated with: 1/sterile Mueller Hinton broth, to serve as negative control; 2/a drug-free bacterial inoculum, to serve as a growth control; 3/a bacterial inoculum (10^5 CFU/mL of final concentration) with various concentrations of the tested indolic compound. The tubes were incubated at 37° C. with agitation (50 rpm). Bacterial inocula are determined in each tube using the CFU count method at the beginning of the experiments, and then after 18 h for concentration-killing curves, or after 1 h, 2 h, 4 h, 8 h and 18 h for time-kill curves. A significant bactericidal effect corresponds to reduction of the initial bacterial load of 3 logs or more at any time of incubation.

[2] = system: Staphylococcus caprae (CHUG-Scapra1); experiment: MIC, Staphylococcus panel (9.2); assay type: cell-based; settings: S. caprae CHUG-Scapra1, 4% DMSO, 18 h
Description: (§1) The microdilution method recommended by the Clinical and Laboratory Standard Institute [M07-A9, Vol. 32, N° 2] was used. The activity of bis-indolic compounds 3f and 4 was tested against 35 Staphylococcus bacterial strains corresponding to 12 different species,
(§2) Bacterial inocula were prepared in Mueller Hinton broth (MH2, BioMérieux, Marcy L'Etoile, France). They were dispensed in 96 well microtiter plates (5×10^5 CFU/ml of final inoculum, 192 μL per well). Indolic compounds diluted in pure DMSO (8 μL per well, concentrated 25 times) were added to the wells as to obtain two-fold serial concentrations (0.5-32 mg/L of final concentrations). The final concentration of DMSO was 4% in each well.
(§3) To avoid cross-contaminations in microtiter plates, one row was left blank between each strain tested. Microplates were incubated for 18 h at 37° C. in ambient air. Then MICs were read visually and, in case of visual reading difficulties, confirmed using a spectrophotometer at a wavelength of 630 nm (BioTek® EL808 Absorbance Microplate Reader). MICs corresponded to the minimum bis-indolic compound concentration that allowed complete visual growth inhibition of bacteria. Drug-free cultures served as growth controls.
(§4) Coagulase-negative Staphylococcus strains included three reference strains purchased from CRBIP: a methicillin-susceptible S. epidermidis strain (ATCC 12228), a methicillin-resistant S. epidermidis strain (ATCC 49461), and a methicillin-susceptible S. sciuri strain (ATCC 29061). We also used clinical strains belonging to the following coagulase-negative Staphylococcus species: S. auricularis (two strains), S. warneri (five strains), S. capitis (five strains), S. haemolyticus (four strains), S. hominis (seven strains), S. cohnii (two strains), and S. saprophyticus, S. caprae and S. simulans (one strain each). Identification of the clinical strains was obtained using VITEK® 2 System (Biomérieux). The specified strain numbers correspond to an internal number of the bacterial strain collection of our laboratory.

[3] = system: Staphylococcus auricularis (CHUG-Saur3); experiment: MIC, Staphylococcus panel (9.2); assay type: cell-based; settings: S. auricularis CHUG-Saur3, 4% DMSO, 18 h
Description: as §1, §2, §3, §4

[4] = system: Staphylococcus cohnii (CHUG-Scoh1) (MRSA); experiment: MIC, Staphylococcus panel (9.2); assay type: cell-based; settings: S. cohnii CHUG-Scoh1 (MRSA), 4% DMSO, 18 h
Description: as §1, §2, §3, §4

[5] = system: Staphylococcus hominis (CHUG-Shom3); experiment: MIC, Staphylococcus panel (9.2); assay type: cell-based; settings: S. hominis CHUG-Shom3, 4% DMSO, 18 h
Description: as §1, §2, §3, §4

[6] = system: Staphylococcus capitis (CHUG-Scap6); experiment: MIC, Staphylococcus panel (9.2); assay type: cell-based; settings: S. capitis CHUG-Scap6, 4% DMSO, 18 h
Description: as §1, §2, §3, §4

[7] = system: Staphylococcus warneri (CHUG-Swar5); experiment: MIC, Staphylococcus panel (9.2); assay type: cell-based; settings: S. warneri CHUG-Swar5, 4% DMSO, 18 h
Description: as §1, §2, §3, §4

[8] = system: Staphylococcus capitis (CHUG-Scap7); experiment: MIC, Staphylococcus panel (9.2); assay type: cell-based; settings: S. capitis CHUG-Scap7, 4% DMSO, 18 h
Description: as §1, §2, §3, §4

[9] = system: Staphylococcus cohnii (CHUG-Scoh2); experiment: MIC, Staphylococcus panel (9.2); assay type: cell-based; settings: S. cohnii CHUG-Scoh2, 4% DMSO, 18 h
Description: as §1, §2, §3, §4

[10] = system: Staphylococcus hominis (CHUG-Shom7); experiment: MIC, Staphylococcus panel (9.2); assay type: cell-based; settings: S. hominis CHUG-Shom7, 4% DMSO, 18 h
Description: as §1, §2, §3, §4

[11] = system: Staphylococcus warneri (CHUG-Swar7); experiment: MIC, Staphylococcus panel (9.2); assay type: cell-based; settings: S. warneri CHUG-Swar7, 4% DMSO, 18 h
Description: as §1, §2, §3, §4

[12] = system: Staphylococcus hominis (CHUG-Shom4); experiment: MIC, Staphylococcus panel (9.2); assay type: cell-based; settings: S. hominis CHUG-Shom4, 4% DMSO, 18 h
Description: as §1, §2, §3, §4

[13] = system: Staphylococcus haemolyticus (CHUG-Shae4); experiment: MIC, Staphylococcus panel (9.2); assay type: cell-based; settings: S. haemolyticus CHUG-Shae4, 4% DMSO, 18 h
Description: as §1, §2, §3, §4

[14] = system: Staphylococcus capitis (CHUG-Scap5); experiment: MIC, Staphylococcus panel (9.2); assay type: cell-based; settings: S. capitis CHUG-Scap5, 4% DMSO, 18 h
Description: as §1, §2, §3, §4

[15] = system: Staphylococcus saprophyticus (CHUG-Ssap2); experiment: MIC, Staphylococcus panel (9.2); assay type: cell-based; settings: S. saprophyticus CHUG-Ssap2, 4% DMSO, 18 h
Description: as §1, §2, §3, §4

[16] = system: Staphylococcus hominis (CHUG-Shom6); experiment: MIC, Staphylococcus panel (9.2); assay type: cell-based; settings: S. hominis CHUG-Shom6, 4% DMSO, 18 h
Description: as §1, §2, §3, §4

[17] = system: Staphylococcus capitis (CHUG-Scap4); experiment: MIC, Staphylococcus panel (9.2); assay type: cell-based; settings: S. capitis CHUG-Scap4, 4% DMSO, 18 h
Description: as §1, §2, §3, §4

[18] = system: Staphylococcus aureus ATCC 106414 (VISA); experiment: MIC, Staphylococcus panel (9.2); assay type: cell-based; settings: 18 h
Description: as §1, §2, §3
Four Staphylococcus aureus strains were used. Two reference strains were provided by the French reference center for Staphylococcus spp. (Lyon, France), including one methicillin-susceptible (MSSA 476) and one methicillin-resistant (MRSA 252) S. aureus strains. The two remaining S. aureus strains were purchased from the CRBIP (Centre de Ressources Biologiques de l'Institut Pasteur): a vancomycin-intermediate strain (ATCC 106414) and a S. aureus strain (SA-1199B) resistant to fluoroquinolones due to overexpression of the NorA multidrug efflux pump.

| SMILES | bacterial regrowth (time-kill curve) ([1]; 4×MIC, incubation prolonged to 18 h) | bactericidal activity (time-kill curve) ([1]; after 8 h incubation, 4×, 8× and 16× the MIC) | MIC [2] [µg/mL] | MIC [3] [µg/mL] | MIC [4] [µg/mL] | MIC [5] [µg/mL] | MIC [6] [µg/mL] | MIC [7] [µg/mL] | MIC [8] [µg/mL] | MIC [9] [µg/mL] | MIC [10] [µg/mL] | MIC [11] [µg/mL] | MIC [12] [µg/mL] | MIC [13] [µg/mL] | MIC [14] [µg/mL] | MIC [15] [µg/mL] | MIC [16] [µg/mL] | MIC [17] [µg/mL] | MIC [18] [µg/mL] |
| --- | --- | --- | --- | --- | --- | --- | --- | --- | --- | --- | --- | --- | --- | --- | --- | --- | --- | --- | --- |
| CC(C)(C)OC(=O)NCC(NC(=O)c1c[nH]c2ccc(Br)cc12)c1c[nH]c2ccc(Br)cc12 (stereo not shown) [Compound 3f, tert-Butyl(2-(5-bromo-1H-indol-3-yl)-2-(5-bromo-1H-indolyl-3-carboxamido)ethyl)carbamate] | progressive bacterial regrowth | significant bactericidal activity | 8 (≈ 13.9 µM) | 8 (≈ 13.9 µM) | 16 (≈ 27.8 µM) | 16 (≈ 27.8 µM) | 8 (≈ 13.9 µM) | 8 (≈ 13.9 µM) | 16 (≈ 27.8 µM) | 16 (≈ 27.8 µM) | 8 (≈ 13.9 µM) | 8 (≈ 13.9 µM) | 8 (≈ 13.9 µM) | 16 (≈ 27.8 µM) | 16 (≈ 27.8 µM) | 8 (≈ 13.9 µM) | 8 (≈ 13.9 µM) | 4 (≈ 6.94 µM) | – |
| CC(NC(=O)c1c[nH]c2ccc(Br)cc12)c1c[nH]c2ccc(Br)cc12 (stereo not shown) [Compound 4, 5-Bromo-N-(1-(5-bromo-1H-indol-3-yl)ethyl)-1H-indole-3-carboxamide] | – | – | – | – | – | – | – | – | – | – | – | – | – | – | – | – | – | – | 1 (≈ 2.17 µM) |
